Test results as given in the supplement of paper PMC4932681.

What was measured:
Assay in all cases: viability inhibition at highest dose (% inhibition); higher = more growth inhibition
BT-474 = settings: 72 h
Description: (§1)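 Percent inhibition of viability (CellTiter-Glo, 72 h) at the highest tested concentration (D5), normalised to DMSO (0%) and 100 µM benzethonium chloride (100%). Resistant lines and the 'in 1µM tamoxifen' arms were tested in 1 µM 4-OH-tamoxifen.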

MCF-7 Tam1 = settings: 4-OH-tamoxifen in medium 1 µM; 72 h
Description: as §1

BT-474 Tam1 = settings: 4-OH-tamoxifen in medium 1 µM; 72 h
Description: as §1

ZR-75-1 Tam1 = settings: 4-OH-tamoxifen in medium 1 µM; 72 h
Description: as §1

T-47D = settings: 72 h
Description: as §1

ZR-75-1 Tam2 = settings: 4-OH-tamoxifen in medium 1 µM; 72 h
Description: as §1

ZR-75-1 = settings: 72 h
Description: as §1

BT-474 Tam2 = settings: 4-OH-tamoxifen in medium 1 µM; 72 h
Description: as §1

T-47D Tam1 = settings: 4-OH-tamoxifen in medium 1 µM; 72 h
Description: as §1

T-47D Tam2 = settings: 4-OH-tamoxifen in medium 1 µM; 72 h
Description: as §1

MCF-7 = settings: 72 h
Description: as §1

SMILES	viability inhibition at highest dose (BT-474; 4-OH-tamoxifen in medium 0 µM)	viability inhibition at highest dose (BT-474; 4-OH-tamoxifen in medium 1 µM)	viability inhibition at highest dose (MCF-7 Tam1)	viability inhibition at highest dose (BT-474 Tam1)	viability inhibition at highest dose (ZR-75-1 Tam1)	viability inhibition at highest dose (T-47D; 4-OH-tamoxifen in medium 0 µM)	viability inhibition at highest dose (T-47D; 4-OH-tamoxifen in medium 1 µM)	viability inhibition at highest dose (ZR-75-1 Tam2)	viability inhibition at highest dose (ZR-75-1; 4-OH-tamoxifen in medium 0 µM)	viability inhibition at highest dose (ZR-75-1; 4-OH-tamoxifen in medium 1 µM)	viability inhibition at highest dose (BT-474 Tam2)	viability inhibition at highest dose (T-47D Tam1)	viability inhibition at highest dose (T-47D Tam2)	viability inhibition at highest dose (MCF-7; 4-OH-tamoxifen in medium 0 µM)	viability inhibition at highest dose (MCF-7; 4-OH-tamoxifen in medium 1 µM)
CCN1CCN(c2ccc(Nc3cc(N(C)C(=O)Nc4c(Cl)c(OC)cc(OC)c4Cl)ncn3)cc2)CC1 [NVP-BGJ398] (drug 1000 nM)	-15.6	1.03	0.341	14.4	-4.94	-9.62	3.56	-4.28	-1.6	-10.3	5.89	5.28	-8.43	-15.8	2.98
Cn1cncc1[C@@](N)(c1ccc(Cl)cc1)c1ccc2c(c1)c(-c1cccc(Cl)c1)cc(=O)n2C [Tipifarnib  (Zarnestra)] (drug 10000 nM)	42.6	77.3	42	85.4	57.6	28.4	14.2	57.7	51	50.5	78.5	55.8	44.6	64.4	77.7
Cc1cc2c(F)c(Oc3ncnn4cc(OC[C@@H](C)O)c(C)c34)ccc2[nH]1 [Brivanib] (drug 1000 nM)	-13	-17.5	-13	6.47	-6.33	-14.5	-3.49	3.72	-7.74	-7.64	7.57	2.73	-3.24	-12.6	-7.3
CO[C@H]1C[C@@H]2CC[C@@H](C)[C@@](O)(O2)C(=O)C(=O)N2CCCC[C@H]2C(=O)O[C@H]([C@H](C)C[C@@H]2CC[C@@H](O)[C@H](OC)C2)CC(=O)[C@H](C)/C=C(\C)[C@@H](O)[C@@H](OC)C(=O)[C@H](C)C[C@H](C)/C=C/C=C/C=C/1C [Sirolimus (Rapamycin)] (drug 1000 nM)	17.8	13.2	7.86	21.7	33.3	28.5	13.8	36.3	38.1	31	24.1	34.8	26.9	45.5	35.8
OC[C@H]1O[C@@H](n2cnc3c2N=CNC[C@H]3O)C[C@@H]1O [Pentostatin] (drug 10000 nM)	15.9	13.3	19.7	30.3	46.9	45.1	28.1	40.8	48.5	41.3	16	48	35.5	47.4	30.7
O=C(Nc1ccncc1)C(=O)c1cn(Cc2ccc(Cl)cc2)c2ccccc12 [Indibulin] (drug 10000 nM)	7.67	28.2	-9.03	7.16	10.6	2.62	12	11.1	9.44	-3.66	8.07	13	4.46	36.4	33.7
CC(C)C[C@@H](C(=O)N[C@H](C(=O)OC1CCCC1)c1ccccc1)[C@H](O)C(=O)NO [Tosedostat (CHR 2797)] (drug 10000 nM)	19	54.7	14.2	34.7	30	33.3	15.7	37	22.3	28.8	28.5	46.1	48.2	40.5	38.1
Nc1nc(Cl)nc2c1ncn2[C@H]1C[C@H](O)[C@@H](CO)O1 [Cladribine] (drug 1000 nM)	-15.8	-9.47	-0.292	-9.7	21	-1.69	-2.3	20	15.2	15.8	-11.6	25.8	11.4	-15.2	6.39
COc1cc2/c(=N/c3ccc(Br)cc3F)nc[nH]c2cc1OCC1CCN(C)CC1 [Vandetanib  (ZD6474, Zactima)] (drug 1000 nM)	2.03	5.94	-0.506	22	4.94	-1.36	-3.82	0.544	-14.7	-3	15	11.5	20.8	15.2	11.9
Oc1ncnc2[nH]ncc12 [Allopurinol] (drug 10000 nM)	2.31	19.8	3.95	-0.277	8.36	0.987	3.06	-2.7	-2.05	9.69	8.84	5	4.5	-21.9	-2.88
C/C(=C\c1csc(C)n1)[C@@H]1C[C@@H]2O[C@]2(C)CCC[C@H](C)[C@H](O)[C@@H](C)C(=O)C(C)(C)[C@@H](O)CC(=O)N1 [Ixabepilone] (drug 1000 nM)	-8.54	41	-16.3	4.12	-3.74	45.1	23	-5.09	-11.9	-5.49	-14.8	30	33.3	33.8	26.2
O=C(Cc1ccc(-c2ccc(OCCN3CCOCC3)cc2)cn1)NCc1ccccc1 [KX2-391] (drug 10000 nM)	41	82.9	16.8	92.7	43.1	24.2	25.3	47.8	41.1	38.6	92.2	74.1	47.3	44.4	55.3
O=C(c1cc(Cc2n[nH]c(=O)c3ccccc23)ccc1F)N1CCN(C(=O)C2CC2)CC1 [Olaparib] (drug 10000 nM)	-3.98	-18.1	-1.72	11.7	9.56	10.8	0.545	6.09	2.83	-2.23	6.64	3.42	13.8	-12.5	18
c1ccc2c(CCNc3ccc(Nc4ccncc4)cc3)c[nH]c2c1 (drug 10000 nM)	-5.93	78	12.8	91.8	21.8	16.5	9.19	32.2	14	25.5	37.9	20.6	22.6	62.4	22.2
NC(=O)NO [Hydroxyurea] (drug 100000 nM)	-6.12	14.5	1.25	6.52	2.07	-10.4	7.44	-8.32	-5.61	3.11	5.16	-2.99	1.81	-13.2	12.6
NC(=O)Nc1cc(-c2cccc(F)c2)sc1C(=O)N[C@H]1CCCNC1 [AZD7762] (drug 1000 nM)	-6.57	-6.16	2.31	-13.6	-10.3	-14.8	13.8	-5.84	10.5	-0.00544	-14.7	18.2	29.3	35.5	5.25
Cn1cc(C2=Nc3cc(NC(=O)C(N)C4CCCCC4)cc4c3C2=CNNC4=O)cn1 (stereo not given) (drug 10000 nM)	3.65	-3.68	1.36	3.49	-5.99	4.48	28.4	-2.91	8.7	-11.4	-6.26	28.7	26.5	31	12.3
CO[C@H]1C[C@@H]2CC[C@@H](C)[C@@](O)(O2)C(=O)C(=O)N2CCCC[C@H]2C(=O)O[C@H]([C@H](C)C[C@@H]2CC[C@@H](OP(C)(C)=O)[C@H](OC)C2)CC(=O)[C@H](C)/C=C(\C)[C@@H](O)[C@@H](OC)C(=O)[C@H](C)C[C@H](C)/C=C/C=C/C=C/1C [Ridaforolimus] (drug 100 nM)	19.8	6.43	17.7	23.2	35.9	33.4	21.6	39.5	37.8	30.1	22	33.3	28.2	49.7	37.1
COC1=CC(c2cc3ccccc3[nH]2)=N/C1=C\c1[nH]c(C)cc1C [Obatoclax (GX15-070)] (drug 10000 nM)	68.9	18.9	51.1	36.3	23.7	47	44.1	50.8	32.5	31.2	86.7	67.3	36.8	45.6	75.8
C=CCn1c(=O)c2cnc(Nc3ccc(N4CCN(C)CC4)cc3)nc2n1-c1cccc(C(C)(C)O)n1 [MK-1775] (drug 10000 nM)	25	44	6.3	40.9	1.62	22.4	16.9	1.58	21.9	14.6	30.6	39.6	38.8	51.7	35.9
O=C(/C=C/c1cccc(S(=O)(=O)Nc2ccccc2)c1)NO [Belinostat  (PXD101)] (drug 10000 nM)	91.3	97.1	22.8	89	39.5	95.6	94.8	51.5	38.9	38.7	77.2	92	70.4	89.5	86.8
CC(C)(C)c1cnc(CSc2cnc(NC(=O)C3CCNCC3)s2)o1 [SNS-032] (drug 10000 nM)	10.3	33.1	31.3	88.7	45.3	22.4	4.07	52.6	42.4	43.3	87.2	49.1	32	47.4	51.2
C[C@@]1(C(=O)Nc2ccc(F)nc2)CCCN1c1nc(Nc2cc(C3CC3)n[nH]2)c2cccn2n1 (drug 10000 nM)	13	23.1	68.9	15.1	-16.4	48.6	41.9	-9.78	-26.3	-1.41	6.42	46.5	59.2	67.7	81.4
O=NN(CCCl)C(=O)NC1CCCCC1 [Lomustine] (drug 10000 nM)	-2.85	4.76	-10.9	0.268	-0.686	-10.8	-1.44	-14.9	-11.7	-5.51	-2.72	-5.12	7.26	12.6	13.1
CNC(=O)c1cc(Oc2ccc(NC(=O)Nc3ccc(Cl)c(C(F)(F)F)c3)cc2)ccn1 [Sorafenib] (drug 1000 nM)	-8.19	-5.87	-2.56	12.1	-2.44	-13.3	-7.58	-2.71	-7.83	4.52	-4.18	-11.3	4.98	4.04	5.41
CC1=C(/C=C/C(C)=C/C=C/C(C)=C/C(=O)O)C(C)(C)CCC1 [Tretinoin] (drug 10000 nM)	-1.01	-18.6	15.9	-5.43	5.21	3.78	2.8	4.01	0.707	-8.55	7.81	14.5	14.5	-12.3	14.5
CC(=O)OC[C@H]1O[C@@H]([S-])[C@H](OC(C)=O)[C@@H](OC(C)=O)[C@@H]1OC(C)=O.CCP(CC)CC.[Au+] [Auranofin] (drug 2500 nM)	58	97.5	22.4	96	20.7	31	36	12.5	15.9	25.5	66.5	54.3	59.3	91.7	33.9
